Test results taken from patent US20260028336A1 (Arcus Biosciences, Inc., priority 2022, published 2026).

Assays:
Jurkat cells = assay: IL-2 secretion assay in CD3/CD28-activated Jurkat cells (AlphaLISA); format: cell-based; conditions: Homo sapiens, CD3/CD28 T Cell Activator, 24 h, IL-2 AlphaLISA
Experimental: Certain compounds were also evaluated in an IL-2 secretion assay. On the day of the assay, a 16 point, 1:2 master serial dilution of each compound was prepared in Opti-MEM to span a final concentration range of 10 μM to 300 pM. Assays were set up in CORNING® tissue culture-treated 384-well microplates containing 60 nL of each dilution. […] 50,000 cells/well and added to the compound plates. After a short spin (1200 rpm for 1 min), the plates were incubated at 37° C. for 1 hour. The cells were activated by adding 15 μL of IMMUNOCULT™ Human CD3/CD28 T Cell Activator ([…] Technologies) diluted in Opti-MEM. […] The AiphaLISA signal was measured using an EnVision plate reader (PerkinElmer). EC50 values were determined by fitting the data to a standard 4-parameter logistic equation.

Cbl-b = target: T1, Cbl-b (Homo sapiens, UniProt Q13191); assay: Cbl-b probe displacement HTRF binding assay; conditions: 0.4 nM biotinylated Cbl-b, 150 nM BODIPY probe
T1 construct: biotin (biotinylated)
T1 sequence (Q13191 whole entry, species assumed): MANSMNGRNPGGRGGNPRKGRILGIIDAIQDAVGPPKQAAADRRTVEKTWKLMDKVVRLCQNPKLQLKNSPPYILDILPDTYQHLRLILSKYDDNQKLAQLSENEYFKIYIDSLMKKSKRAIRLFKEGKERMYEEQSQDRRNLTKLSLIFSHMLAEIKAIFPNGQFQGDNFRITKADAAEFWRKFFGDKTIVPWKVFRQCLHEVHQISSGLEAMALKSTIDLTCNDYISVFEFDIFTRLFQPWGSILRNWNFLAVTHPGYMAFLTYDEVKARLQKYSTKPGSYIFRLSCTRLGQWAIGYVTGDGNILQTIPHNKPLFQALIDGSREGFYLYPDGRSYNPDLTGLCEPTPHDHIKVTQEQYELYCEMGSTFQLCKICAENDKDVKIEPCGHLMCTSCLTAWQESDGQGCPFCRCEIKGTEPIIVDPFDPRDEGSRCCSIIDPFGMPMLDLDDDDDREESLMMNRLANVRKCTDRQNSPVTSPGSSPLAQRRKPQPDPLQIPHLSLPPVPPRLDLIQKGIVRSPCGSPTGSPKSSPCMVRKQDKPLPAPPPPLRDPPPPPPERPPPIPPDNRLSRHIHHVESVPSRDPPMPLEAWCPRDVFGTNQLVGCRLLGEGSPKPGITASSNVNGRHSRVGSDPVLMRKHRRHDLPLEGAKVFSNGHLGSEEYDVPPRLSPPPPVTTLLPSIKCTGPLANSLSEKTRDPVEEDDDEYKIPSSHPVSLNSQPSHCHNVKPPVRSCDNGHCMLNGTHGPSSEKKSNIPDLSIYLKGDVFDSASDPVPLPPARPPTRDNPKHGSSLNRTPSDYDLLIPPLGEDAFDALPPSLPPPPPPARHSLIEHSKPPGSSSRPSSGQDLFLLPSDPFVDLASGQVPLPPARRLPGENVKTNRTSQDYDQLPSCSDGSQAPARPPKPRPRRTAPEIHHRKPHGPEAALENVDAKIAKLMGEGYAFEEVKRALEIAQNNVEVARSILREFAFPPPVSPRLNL
Experimental: The affinity with which compounds of the present dislcosure bind to Cbl-b was assessed using probe displacement homologous time resolved fluorescence (HTRF) assays. […] The assays were performed in assay buffer consisting of 20 mM Hepes, 150 mM NaCl, 0.01% Triton X-100, 0.5 mM TCEP, 0.01% BSA. On the day of the assay, a 20 point, 1:2 master serial dilution of each compound was prepared in DMSO to span a final concentration range of […] to 0 nM. Two hundred nanoliters of diluted compound was added to each well of a 384-well plate. Fifteen microliters of biotinylated-Cbl-b resuspended in assay buffer were added to each well and the plate incubated for 60 minutes at room temperature prior to addition of 5 μL of BODIPY™ probe in assay buffer. […] After a further 15 minutes of incubation at room temperature, 5 μl of Streptavidin-Terbium cryptate reagent at 5-fold final concentration was added to each well of the 384-well plate. Binding of a probe to Cbl-b results in an increase of HTRF signal. […] Percentage maximum activity in each test well was calculated based on DMSO (maximum activity, 0% displacement) and no protein control wells (baseline activity, 100% displacement). Binding affinity was determined from a dose response curve fitted using a standard four parameter fit equation.

Compound | EC50 (Jurkat cells) | IC50 (Cbl-b)
Cn1cnnc1C1(c2cccc(-n3cc(C4CC4)c4cc(CN[C@H]5COC[C@@H]5O)[nH]c4c3=O)c2)CC(F)(F)C1 [Example 92] | > 5 µM | 0.1 to 1 µM
C[C@H]1CCCN(Cc2cc3c(C4CC4)cn(-c4cccc(C(C)(F)c5nncn5C)c4)c(=O)c3[nH]2)C1 (stereo partly drawn) [Example 163, 4-cyclopropyl-6-[3-[1-fluoro-1-(4-methyl-1,2,4-triazol-3-yl)ethyl]phenyl]-2-[[(3S)-3-methylpiperidin-1-yl]methyl]-1H-pyrrolo[2,3-c]pyridin-7-one] | < 0.1 µM | < 0.1 µM
Cc1nnc(C2(c3cccc(-n4cc(C5CC5)c5cc(CN6CCC[C@H](C)C6)[nH]c5c4=O)c3)CC(F)(F)C2)n1C [Example 125, 4-cyclopropyl-6-[3-[1-(4,5-dimethyl-1,2,4-triazol-3-yl)-3,3-difluorocyclobutyl]phenyl]-2-[[(3S)-3-methylpiperidin-1-yl]methyl]-1H-pyrrolo[2,3-c]pyridin-7-one] | 1 to 5 µM | 1 to 5 µM
CC1CC(c2cccc(-n3cc(C4CC4)c4cc(CN5CCC6(CC5)CC6)[nH]c4c3=O)c2)(c2nncn2C)C1 (centres unmarked) [Example 50, 2-({6-azaspiro[2.5]octan-6-yl}methyl)-4-cyclopropyl-6-{3-[3-methyl-1-(4-methyl-4H-1,2,4-triazol-3-yl)cyclobutyl]phenyl}-1H,6H,7H-pyrrolo[2,3-c]pyridin-7-one] | < 0.1 µM | < 0.1 µM
CC(O)C1(NCc2cc3c(C4CC4)cn(-c4cccc(C5(c6nncn6C)CC(F)(F)C5)c4)c(=O)c3[nH]2)CC1 (centres unmarked) [Example 84, 4-cyclopropyl-6-{3-[3,3-difluoro-1-(4-methyl-4H-1,2,4-triazol-3-yl)cyclobutyl]phenyl}-2-({[1-(1-hydroxyethyl)cyclopropyl]amino}methyl)-1H,6H,7H-pyrrolo[2,3-c]pyridin-7-one] | 1 to 5 µM | < 0.1 µM
C[C@H]1CCCN(Cc2cc3c(C4CC4)cn(-c4cccc([C@]5(c6nncn6C)C[C@H](O)C5)c4)c(=O)c3[nH]2)C1 [Example 99, trans-4-cyclopropyl-6-[3-[3-hydroxy-1-(4-methyl-1,2,4-triazol-3-yl)cyclobutyl]phenyl]-2-[[(3S)-3-methylpiperidin-1-yl]methyl]-1H-pyrrolo[2,3-c]pyridin-7-one] | 1 to 5 µM | –
C[C@H]1CCCN(Cc2cc3c(C4CC4)cn(-c4cccc([C@]5(c6nncn6C)C[C@@H](C)C5)c4)c(=O)c3[nH]2)C1 [Example 3, 4-cyclopropyl-6-[3-[3-methyl-1-(4-methyl-1,2,4-triazol-3-yl)cyclobutyl]phenyl]-2-[[(3S)-3-methylpiperidin-1-yl]methyl]-1H-pyrrolo[2,3-c]pyridin-7-one] | < 0.1 µM | –
CC1CC(c2cccc(-n3cc(C4CC4)c4c(CN5CCC[C@H](C)C5)c[nH]c4c3=O)c2)(c2nncn2C)C1 (mixture of isomers) [Example 15, 4-Cyclopropyl-6-{3-[3-methyl-1-(4-methyl-4H-1,2,4-triazol-3-yl)cyclobutyl]phenyl}-3-{[(3S′)-3-methylpiperidin-1-yl]methyl}-1H,6H,7H-pyrrolo[2,3-c]pyridin-7-one] | – | 0.1 to 1 µM
CC1CC(c2cccc(-n3cc(C(F)(F)F)c4c(C#N)c[nH]c4c3=O)c2)(c2nncn2C)C1 (mixture of isomers) [Example 136, 7-Oxo-6-{3-[(1R,3S)-3-methyl-1-(4-methyl-4H-1,2,4-triazol-3-yl)cyclobutyl]phenyl}-4-(trifluoromethyl)-1H,6H,7H-pyrrolo[2,3-c]pyridine-3-carbonitrile] | – | < 0.1 µM
CC(Sc1nncn1C)c1cccc(-n2cc(C3CC3)c3cc(CN4CCC[C@H](C)C4)[nH]c3c2=O)c1 (stereo partly drawn) [Example 2, 4-cyclopropyl-2-[[(3S)-3-methylpiperidin-1-yl]methyl]-6-[3-[1-[(4-methyl-1,2,4-triazol-3-yl)sulfanyl]ethyl]phenyl]-1H-pyrrolo[2,3-c]pyridin-7-one] | – | 0.1 to 1 µM
CN1CCC(c2cc3c(C4CC4)cn(-c4cccc([C@]5(c6nncn6C)C[C@@H](C)C5)c4)c(=O)c3[nH]2)CC1 [Example 33, 4-cyclopropyl-2-(1-methylpiperidin-4-yl)-6-{3-[(1r,3s)-3-methyl-1-(4-methyl-4H-1,2,4-triazol-3-yl)cyclobutyl]phenyl}-1H,6H,7H-pyrrolo[2,3-c]pyridin-7-one] | – | 0.1 to 1 µM
C[C@H]1CCCN(Cc2cc3ncn(-c4cccc([C@]5(c6nncn6C(F)F)C[C@H](OC(F)F)C5)c4)c(=O)c3[nH]2)C1 [Example 153, 2—{[(S)-3-methyl-1-piperidyl]methyl}-6-(m-{(1r,3S)-3-difluoromethoxy-1-[4-(difluoromethyl)-4H-1,2,4-triazol-3-yl]cyclobutyl}phenyl)-1,6-dihydro-1,4,6-triaza-7-indenone] | – | < 0.1 µM

More lines, now with the values ahead:

EC50 (Jurkat cells) | IC50 (Cbl-b) | Compound
0.1 to 1 µM | < 0.1 µM | Cn1cnnc1[C@]1(c2cccc(-n3cc(C(F)(F)F)c4cn[nH]c4c3=O)c2)C[C@H](C)C1 [Example 140, 6-{3-[(1R,3S)-3-Methyl-1-(4-methyl-4H-1,2,4-triazol-3-yl)cyclobutyl]phenyl}-4-(trifluoromethyl)-1H,6H,7H-pyrazolo[3,4-c]pyridin-7-one]
1 to 5 µM | 1 to 5 µM | CC1CC(c2cccc(-n3cc(C4CC4)c4cc(CO)[nH]c4c3=O)c2)(c2nncn2C)C1 (centres unmarked) [Example 8, 4-cyclopropyl-2-(hydroxymethyl)-6-[3-[3-methyl-1-(4-methyl-1,2,4-triazol-3-yl)cyclobutyl]phenyl]-1H-pyrrolo[2,3-c]pyridin-7-one]
0.1 to 1 µM | < 0.1 µM | Cn1cnnc1[C@]1(c2cccc(-n3cc(C(F)(F)F)c4cc[nH]c4c3=O)c2)C[C@@H](C)C1 (single isomer, unassigned) [Example 37]
1 to 5 µM | 0.1 to 1 µM | CC1CC(c2cccc(-n3cc(C4CC4)c4cc(CNC5(C(F)(F)F)CC5)[nH]c4c3=O)c2)(c2nncn2C)C1 (centres unmarked) [Example 41, 4-cyclopropyl-6-{3-[(1r,3s)-3-methyl-1-(4-methyl-4H-1,2,4-triazol-3-yl)cyclobutyl]phenyl}-2-({[1-(trifluoromethyl)cyclopropyl]amino}methyl)-1H,6H,7H-pyrrolo[2,3-c]pyridin-7-one]
– | 1 to 5 µM | CC1CC(c2cccc(-n3nc(C4CC4)c4cc[nH]c4c3=O)c2)(c2nncn2C)C1 (centres unmarked) [Example 116, 4-cyclopropyl-6-{3-[3-methyl-1-(4-methyl-4H-1,2,4-triazol-3-yl)cyclobutyl]phenyl}-1H,6H,7H-pyrrolo[2,3-d]pyridazin-7-one]
– | 0.1 to 1 µM | Cc1cn(-c2cccc([C@]3(c4nncn4C)C[C@@H](C)C3)c2)c(=O)c2[nH]ccc12 [Example 29, 4-methyl-6-{3-[(1r,3s)-3-methyl-1-(4-methyl-4H-1,2,4-triazol-3-yl)cyclobutyl]phenyl}-1H,6H,7H-pyrrolo[2,3-c]pyridin-7-one]
– | 0.1 to 1 µM | Cn1cnnc1[C@]1(c2cccc(-n3ccc4c(C5CC5)c[nH]c4c3=O)c2)C[C@H](C)C1 (single isomer, unassigned) [Example 13, 3-cyclopropyl-6-{3-[(1r,3s)-3-methyl-1-(4-methyl-4H-1,2,4-triazol-3-yl)cyclobutyl]phenyl}-1H,6H,7H-pyrrolo[2,3-c]pyridin-7-one]
– | < 0.1 µM | CC(=O)c1c[nH]c2c(=O)n(-c3cccc([C@]4(c5nncn5C)C[C@@H](C)C4)c3)cc(C3CC3)c12 (single isomer, unassigned) [Example 21, 3-Acetyl-4-cyclopropyl-6-{3-[(1r,3s)-3-methyl-1-(4-methyl-4H-1,2,4-triazol-3-yl)cyclobutyl]phenyl}-1H,6H,7H-pyrrolo[2,3-c]pyridin-7-one]
– | 1 to 5 µM | Cn1cnnc1[C@]1(c2cccc(-n3ccc4cc[nH]c4c3=O)c2)C[C@@H](C)C1 (single isomer, unassigned) [Example 31, 6-{3-[(1s,3r)-3-methyl-1-(4-methyl-4H-1,2,4-triazol-3-yl)cyclobutyl]phenyl}-1H,6H,7H-pyrrolo[2,3-c]pyridin-7-one]
– | 0.1 to 1 µM | CC1CC(c2cccc(-n3cc(C4CC4)c4c(CO)c[nH]c4c3=O)c2)(c2nncn2C)C1 (mixture of isomers) [Example 16, 4-Cyclopropyl-3-(hydroxymethyl)-6-{3-[3-methyl-1-(4-methyl-4H-1,2,4-triazol-3-yl)cyclobutyl]phenyl}-1H,6H,7H-pyrrolo[2,3-c]pyridin-7-one]
– | 0.1 to 1 µM | Cc1c[nH]c2c(=O)n(-c3cccc([C@]4(c5nncn5C)C[C@@H](C)C4)c3)cc(C3CC3)c12 [Example 17, 4-Cyclopropyl-3-methyl-6-{3-[(1r,3s)-3-methyl-1-(4-methyl-4H-1,2,4-triazol-3-yl)cyclobutyl]phenyl}-1H,6H,7H-pyrrolo[2,3-c]pyridin-7-one]
